Where a name gives a salt, the structure may show the parent alone. Positions of bridges follow the written chain, without caps; N, C: chain ends. Non-standard residues stand in square brackets, D forms with d. Residues, ends and D or L forms follow the SMILES beside them. *: point of attachment. X1 = CC[C@H](C)CCCCC(=O)*; Dab = NCC[C@H](N)C(=O)O
Assays:
A. baumannii = test: MIC for colistin of causative pathogen; assay type: cell-based; conditions: AB
[1] = set-up: method as in Li et al., 2003; conditions: Sprague-Dawley rats; ref Li et al., 2003; cited from earlier work
[2] = Population pharmacokinetic modeling of intravenous colistin sulfate (plasma LC-MS/MS, Phoenix NLME); assay type: in vivo, human
Description: This study was conducted at the Third Xiangya Hospital of Central South University between May 2021 and April 2022. The design of this research fully conformed to the principles of the Helsinki Accords, and the study protocol was approved by the Research Ethics Committee of the Third Xiangya Hospital of Central South University (No: 2021-S396). Written informed consent was obtained from all patients or their legal representatives.
(§1) Colistin sulfate treatment was at the discretion of their medical teams. […] Colistin sulfate was routinely subjected to therapeutic drug monitoring (TDM) in our hospital. […] Other blood samples were collected randomly from residual blood of blood gas analysis or routine blood tests. In addition, urine samples from 6 patients with catheters in the intensive care unit were collected and recorded across a dosage interval (0–12 h after dosing) after 72 h of therapy. All samples were centrifuged for 10 min (4,000 ×g), and the supernatant was immediately collected and stored at −80°C pending analysis.
(§2) Colistin A and colistin B in plasma and urinary samples were quantified using a validated ultraperformance liquid chromatography tandem mass spectrometry (LC-MS/MS) assay. Briefly, samples were pretreated with acetonitrile, and 1 μL supernatant was injected into the LC-MS/MS instrument for analysis. A Waters XBridge BEH HILIC (4.6 × 150 mm, 2.5 μm) column was used. The mobile phase, consisting of eluents A (0.1% formic acid in water, vol/vol) and B (methanol), was delivered at a flow of 0.5 ml/min. Analysis of independently prepared quality control samples indicated good reproducibility (coefficients of variation ≤12.57%), and accuracy ranged from 88.52% to 109.43%. The limit of quantification was 0.034 mg/L for colistin A and 0.059 mg/L for colistin B. Since colistin A and B had similar structures, molecular weights and pharmacokinetic characteristics, the concentrations of colistin A and B were added together and referred to as colistin ([Li et al., 2003]; [Couet et al., 2011]).
Population PK analysis was performed using a non-linear mixed-effect modeling with the Phoenix® NLME software (version 8.3.4, Certara L.P. United States). The first-order conditional estimation-extended least-squares (FOCE-ELS) method was used to develop the PPK model. One- and two-compartment models with linear elimination were compared based on Akaike information criteria (AIC) and Bayesian information criterion (BIC). The inter-individual variability of PK parameters was assumed to follow a log-normal distribution and described using an exponential model, and residual variability was described by an additive, proportional, or combined error model. The coefficient of variation (CV%), goodness-of-fit plots, and the likelihood ratio test (-2 loglikelihood; -2LL) were used to evaluate the model.
Then, a stepwise covariate modeling (SCM) method was used to explore candidate covariates on PK parameters, including age, sex, weight, ALT, AST, TBIL, DBIL, TBA, TP, ALB, UA, BUN, CrCL, WBC, NEUT, HGB, RBC, HCT, PLT, PT, TT, APTT, PA, FIB, CRP, PCT, LAC, and 24-h urine volume, where continuous covariates (e.g., age) were modeled by using the power function and categorical covariates (e.g., sex) were described by an exponential function. By comparing with the base model, a drop in objective function value (OFV) > 3.84 (p < 0.05, df = 1) during forward selection steps and an increase of OFV >6.63 (p < 0.01, df = 1) in backward elimination steps were the inclusion criteria for covariates.
Finally, the reliability of the final model was evaluated by goodness-of-fit plots. Additionally, the performance of the final model was assessed by a prediction-corrected visual predictive check (pcVPC) of 1,000 replicates using Monte Carlo simulations, and a bootstrap analysis with 1,000 samples was conducted to evaluate the model stability.

K. pneumoniae = test: MIC for colistin of causative pathogen; assay type: cell-based; conditions: isolate of patient 2; KP
[3] = Urinary excretion and renal clearance of colistin sulfate; assay type: in vivo, human
Description: as §1, §2
The renal clearance (CLR) of colistin was calculated as the ratio of the amount recovered in urine to the area under the plasma concentration-time curve (AUC) during the same period ([Sandri et al., 2013]). The percentage of colistin sulfate excreted in urine was defined as the amount of colistin recovered in urine divided by the dose administered. The fraction of renal clearance was estimated by CLR divided by total body clearance (CL) ([Li et al., 2003]).

Question: Which results are given for `CC[C@H](C)CCCCC(=O)N[C@@H](CCN)C(=O)N[C@H](C(=O)N[C@@H](CCN)C(=O)N[C@H]1CCNC(=O)[C@H]([C@@H](C)O)NC(=O)[C@H](CCN)NC(=O)[C@H](CCN)NC(=O)[C@H](CC(C)C)NC(=O)[C@@H](CC(C)C)NC(=O)[C@H](CCN)NC1=O)[C@@H](C)O` [colistin sulfate] (X1-[Dab]T[Dab][Dab][Dab][dL]L[Dab][Dab]T; lactam 4-C)?
Answer: MIC (A. baumannii; isolate of patient 8): 2 µg/mL; MIC (A. baumannii; isolate of patient 18): 0.5 µg/mL; MIC (A. baumannii; isolate of patient 19): 0.5 µg/mL; dose recovered from urine [1]: 0.18 ± 0.14%; dV2dALT, exponential parameter coefficient of ALT to V2, final model estimate ([2]; PPK model, n = 20): 0.635; dCLdCrCL, bootstrap median ([2]; bootstrap with 1,000 samples): 0.373; dV2dALT, bootstrap median ([2]; bootstrap with 1,000 samples): 0.633; tvCL2, bootstrap median ([2]; bootstrap with 1,000 samples): 1.78 L/h; tvCL, bootstrap median ([2]; bootstrap with 1,000 samples): 1.46 L/h; tvV2, bootstrap median ([2]; bootstrap with 1,000 samples): 53.8 L; tvV, bootstrap median ([2]; bootstrap with 1,000 samples): 16.2 L; tvV, typical value of volume of central compartment distribution (V), final model estimate ([2]; critically ill patients, iv, n = 20, 98 plasma concentrations, two-compartment PPK model): 16.1 L; tvCL2, typical value of inter-compartmental clearance (CL2), final model estimate ([2]; critically ill patients, iv, n = 20, two-compartment PPK model): 1.71 L/h; tvV2, typical value of volume of peripheral compartment distribution (V2), final model estimate ([2]; critically ill patients, iv, n = 20, two-compartment PPK model, at ALT 37): 50.5 L; tvCL, typical value of central compartment clearance (CL), final model estimate ([2]; critically ill patients, iv, n = 20, two-compartment PPK model, at CrCL 57.5): 1.50 L/h; CL, median ([2]; six patients with urine samples, median): 1.519 L/h; MIC (K. pneumoniae): 0.5 µg/mL; dose excreted ([3]; human, iv, six patients, 41 urine samples, 0-12 h dosage interval after 72 h of therapy, median, read-out: percentage of colistin dose excreted in urine, median): 10.1%; CLR ([3]; patient 1, 1.0 MU q12h): 0.133 L/h; CLR/CL ([3]; patient 1, 1.0 MU q12h): 9.15%; CLR ([3]; patient 2, 1.0 MU q12h): 0.405 L/h; CLR/CL ([3]; patient 2, 1.0 MU q12h): 15.58%; CLR ([3]; patient 3, 0.75 MU q12h): 0.108 L/h; CLR/CL ([3]; patient 3, 0.75 MU q12h): 2.52%; CLR ([3]; patient 5, 0.75 MU q12h): 0.284 L/h; CLR/CL ([3]; patient 5, 0.75 MU q12h): 17.95%; CLR ([3]; patient 7, 0.75 MU q12h): 0.053 L/h; CLR/CL ([3]; patient 7, 0.75 MU q12h): 4.64%; CLR ([3]; patient 8, 0.75 MU q12h): 0.767 L/h; 12-hour urinary excretion of colistin, median ([3]; six patients, median): 4.149 mg; CLR as percentage of CL (CLR/CL), median ([3]; six patients, median): 12.37%; renal clearance (CLR), median ([3]; six patients, median): 0.209 L/h

Source: article PMC9465641 (Frontiers in Pharmacology, 2022)
